According to PMC5218480 (PLoS ONE, 2017):

Tested on: MV-4-11 cells
Assay: Gene expression microarray analysis (Affymetrix PrimeView) and GSEA
Type: cell-based, human
Parameters: RFU PODN (11730768_x_at) / Fold change /veh PODN (11730768_x_at) / RFU LINC00158 (11744669_a_at) / Fold change /veh LINC00158 (11744669_a_at) / RFU DUSP10 (11751237_a_at) / Fold change /veh DUSP10 (11751237_a_at) / RFU ID3 (11757404_x_at) / Fold change /veh ID3 (11757404_x_at) / RFU PLEKHG5 (11737974_s_at) / Fold change /veh PLEKHG5 (11737974_s_at) / RFU LRRC4B (11730491_at) / Fold change /veh LRRC4B (11730491_at) / RFU GIMAP4 (11747438_a_at) / Fold change /veh GIMAP4 (11747438_a_at) / RFU KRT8 (11758183_x_at) / Fold change /veh KRT8 (11758183_x_at) / RFU CNN1 (11734310_a_at) / Fold change /veh CNN1 (11734310_a_at) / RFU VPS37D (11726825_at) / Fold change /veh VPS37D (11726825_at) / RFU C10orf10 (11716522_x_at) / Fold change /veh C10orf10 (11716522_x_at) / RFU KIR2DL2 /// KIR2DL4 /// KIR2DL5A /// KIR2DL5B /// KIR2DS1 /// KIR2DS2 /// KIR2DS3 /// KIR2DS4 /// KIR3DL3 /// KIR3DL3 /// KIR3DS1 (11738374_at) / Fold change /veh KIR2DL2 /// KIR2DL4 /// KIR2DL5A /// KIR2DL5B /// KIR2DS1 /// KIR2DS2 /// KIR2DS3 /// KIR2DS4 /// KIR3DL3 /// KIR3DL3 /// KIR3DS1 (11738374_at) / RFU C1QL1 (11718748_at) / Fold change /veh C1QL1 (11718748_at) / RFU TMPRSS4 (11747572_a_at) / Fold change /veh TMPRSS4 (11747572_a_at) / RFU HAMP (11756126_x_at) / Fold change /veh HAMP (11756126_x_at) / RFU RNFT2 (11725882_a_at) / Fold change /veh RNFT2 (11725882_a_at) / RFU NR4A2 (11747474_a_at) / Fold change /veh NR4A2 (11747474_a_at) / RFU ABCC12 (11746883_a_at) / Fold change /veh ABCC12 (11746883_a_at) / RFU TMEM136 (11760407_x_at) / Fold change /veh TMEM136 (11760407_x_at) / RFU CLDN22 /// WWC2 (11732394_at) / Fold change /veh CLDN22 /// WWC2 (11732394_at) / RFU HLA-DPB1 (11760878_x_at) / Fold change /veh HLA-DPB1 (11760878_x_at) / RFU SPINT1 (11716480_a_at) / Fold change /veh SPINT1 (11716480_a_at) / RFU GAP43 (11754022_s_at) / Fold change /veh GAP43 (11754022_s_at) / RFU A4GNT (11735810_at) / Fold change /veh A4GNT (11735810_at) / RFU PRB3 (11715151_x_at) / Fold change /veh PRB3 (11715151_x_at) / RFU TUBB4B (11761932_at) / Fold change /veh TUBB4B (11761932_at) / RFU CAPN14 (11732068_a_at) / Fold change /veh CAPN14 (11732068_a_at) / RFU TMCC2 (11721928_a_at) / Fold change /veh TMCC2 (11721928_a_at) / RFU IRGQ (11745062_a_at) / Fold change /veh IRGQ (11745062_a_at) / RFU FAM174B (11720279_a_at) / Fold change /veh FAM174B (11720279_a_at) / RFU TMPRSS4 (11748680_a_at) / Fold change /veh TMPRSS4 (11748680_a_at) / RFU FAM212B (11763350_a_at) / Fold change /veh FAM212B (11763350_a_at) / RFU PLEKHG5 (11743358_a_at) / Fold change /veh PLEKHG5 (11743358_a_at) / RFU ZSCAN30 (11745921_a_at) / Fold change /veh ZSCAN30 (11745921_a_at) / RFU CMKLR1 (11741424_a_at) / Fold change /veh CMKLR1 (11741424_a_at) / RFU LOC101060620 /// MAPK8IP1 (11723275_at) / Fold change /veh LOC101060620 /// MAPK8IP1 (11723275_at) / RFU SPTSSB (11747773_x_at) / Fold change /veh SPTSSB (11747773_x_at) / RFU PRSS12 (11739890_at) / Fold change /veh PRSS12 (11739890_at) / RFU BIN1 (11741810_x_at) / Fold change /veh BIN1 (11741810_x_at) / RFU WNT11 (11732464_a_at) / Fold change /veh WNT11 (11732464_a_at) / RFU C10orf10 (11716521_a_at) / Fold change /veh C10orf10 (11716521_a_at) / RFU C5orf56 (11738089_at) / Fold change /veh C5orf56 (11738089_at) / RFU CYB561 (11721691_x_at) / Fold change /veh CYB561 (11721691_x_at) / RFU ANKRD19P (11752326_a_at) / Fold change /veh ANKRD19P (11752326_a_at) / RFU OR2T12 /// OR2T33 /// OR2T8 (11738714_s_at) / Fold change /veh OR2T12 /// OR2T33 /// OR2T8 (11738714_s_at) / RFU VCAN (11748164_a_at) / Fold change /veh VCAN (11748164_a_at) / RFU JSRP1 (11732532_at) / Fold change /veh JSRP1 (11732532_at) / RFU KRTAP10-11 (11738290_x_at) / Fold change /veh KRTAP10-11 (11738290_x_at) / RFU MYO3A (11730013_a_at) / Fold change /veh MYO3A (11730013_a_at) / RFU EBF3 (11725865_a_at) / Fold change /veh EBF3 (11725865_a_at) / RFU CAMK2N1 (11719241_x_at) / Fold change /veh CAMK2N1 (11719241_x_at) / RFU C5orf56 (11738088_a_at) / Fold change /veh C5orf56 (11738088_a_at) / RFU OLFML3 (11715873_a_at) / Fold change /veh OLFML3 (11715873_a_at) / RFU LOC100653217 /// NTM (11731650_a_at) / Fold change /veh LOC100653217 /// NTM (11731650_a_at) / RFU MAPK11 (11762145_a_at) / Fold change /veh MAPK11 (11762145_a_at) / RFU FIZ1 (11724087_x_at) / Fold change /veh FIZ1 (11724087_x_at) / RFU OASL (11726364_x_at) / Fold change /veh OASL (11726364_x_at) / RFU SOX15 (11748057_x_at) / Fold change /veh SOX15 (11748057_x_at) / RFU CD79A (11719716_a_at) / Fold change /veh CD79A (11719716_a_at) / RFU HIST1H1D (11736915_at) / Fold change /veh HIST1H1D (11736915_at) / RFU CASKIN2 (11723855_a_at) / Fold change /veh CASKIN2 (11723855_a_at) / RFU LOC730098 (11760151_x_at) / Fold change /veh LOC730098 (11760151_x_at) / RFU OR4N2 (11742367_at) / Fold change /veh OR4N2 (11742367_at) / RFU PRRT2 (11749266_a_at) / Fold change /veh PRRT2 (11749266_a_at) / RFU SNX32 (11753110_a_at) / Fold change /veh SNX32 (11753110_a_at) / RFU CDHR5 (11726645_a_at) / Fold change /veh CDHR5 (11726645_a_at) / RFU RCAN1 (11760418_a_at) / Fold change /veh RCAN1 (11760418_a_at) / RFU FAM167A (11723789_a_at) / Fold change /veh FAM167A (11723789_a_at) / RFU FAM26E (11764081_at) / Fold change /veh FAM26E (11764081_at) / RFU ISYNA1 (11749810_s_at) / Fold change /veh ISYNA1 (11749810_s_at) / RFU ACY1 (11761880_at) / Fold change /veh ACY1 (11761880_at) / RFU 11764098_at / Fold change /veh 11764098_at / RFU SAMD14 (11745864_x_at) / Fold change /veh SAMD14 (11745864_x_at) / RFU NPB (11741838_a_at) / Fold change /veh NPB (11741838_a_at) / RFU TMPRSS6 (11731388_a_at) / Fold change /veh TMPRSS6 (11731388_a_at) / RFU KRTAP10-2 (11738614_at) / Fold change /veh KRTAP10-2 (11738614_at) / RFU ARHGAP8 /// PRR5-ARHGAP8 (11727945_x_at) / Fold change /veh ARHGAP8 /// PRR5-ARHGAP8 (11727945_x_at) / RFU KRTAP5-7 /// NADSYN1 (11734609_at) / Fold change /veh KRTAP5-7 /// NADSYN1 (11734609_at) / RFU RASL12 (11751679_a_at) / Fold change /veh RASL12 (11751679_a_at) / RFU CDKN2B (11736163_a_at) / Fold change /veh CDKN2B (11736163_a_at) / RFU PRF1 (11729649_at) / Fold change /veh PRF1 (11729649_at) / RFU, ZNF638 /// ZNF638-IT1 / Fold change vs veh, ZNF638 /// ZNF638-IT1 / RFU, PANK3 / Fold change vs veh, PANK3 / RFU, SH3YL1 / Fold change vs veh, SH3YL1 / RFU, ZEB2 / Fold change vs veh, ZEB2 / RFU, NRIP1 / Fold change vs veh, NRIP1 / RFU, PTTG1IP / Fold change vs veh, PTTG1IP / RFU, CAPN2 / Fold change vs veh, CAPN2 / RFU, MED14 / Fold change vs veh, MED14 / RFU, SNORA58 / Fold change vs veh, SNORA58 / RFU, C1orf63 / Fold change vs veh, C1orf63 / RFU, LRRFIP1 / Fold change vs veh, LRRFIP1 / RFU, NDUFAF7 / Fold change vs veh, NDUFAF7 / RFU, SLC12A2 / Fold change vs veh, SLC12A2 / RFU, IBTK / Fold change vs veh, IBTK / RFU, ESF1 / Fold change vs veh, ESF1 / Fold change vs veh, TMEM50B / RFU, TAOK1 / Fold change vs veh, TAOK1 / RFU, ACBD3 / Fold change vs veh, ACBD3 / RFU, TMA16 / Fold change vs veh, TMA16 / RFU, RWDD3 / Fold change vs veh, RWDD3 / RFU, BCAT1 / Fold change vs veh, BCAT1 / RFU, EDEM3 / Fold change vs veh, EDEM3 / RFU, TMEM33 / Fold change vs veh, TMEM33 / RFU, WDR75 / Fold change vs veh, WDR75 / RFU, AHCTF1 / Fold change vs veh, AHCTF1 / RFU, TFRC / Fold change vs veh, TFRC / RFU, ZDHHC17 / Fold change vs veh, ZDHHC17 / RFU, NOM1 / Fold change vs veh, NOM1 / RFU, ARL8B / Fold change vs veh, ARL8B / RFU, ZBTB11 / Fold change vs veh, ZBTB11 / RFU, TAMM41 / Fold change vs veh, TAMM41 / RFU, KIAA1704 /// LOC100996395 / Fold change vs veh, KIAA1704 /// LOC100996395 / RFU, ING1 / Fold change vs veh, ING1 / RFU, TRMT61B / Fold change vs veh, TRMT61B / RFU, FUBP3 / Fold change vs veh, FUBP3 / RFU, TP53 / Fold change vs veh, TP53 / RFU, TNKS2 / Fold change vs veh, TNKS2 / RFU, ZFP14 / Fold change vs veh, ZFP14 / RFU, ACTR2 / Fold change vs veh, ACTR2 / RFU, PPP3R1 / Fold change vs veh, PPP3R1 / RFU, PIK3R1 / Fold change vs veh, PIK3R1 / RFU, HNRNPA1 / Fold change vs veh, HNRNPA1 / RFU, RNF170 / Fold change vs veh, RNF170 / RFU, ZNF28 / Fold change vs veh, ZNF28 / RFU, RNGTT / Fold change vs veh, RNGTT / RFU, OGT / Fold change vs veh, OGT / RFU, BRD1 / Fold change vs veh, BRD1 / RFU, MARS / Fold change vs veh, MARS / RFU, ZNF655 / Fold change vs veh, ZNF655 / RFU, FAHD1 / Fold change vs veh, FAHD1 / RFU, BDP1 / Fold change vs veh, BDP1 / RFU, LRRCC1 / Fold change vs veh, LRRCC1 / RFU, ARID1A / Fold change vs veh, ARID1A / RFU, ZNF146 / Fold change vs veh, ZNF146 / RFU, ZNF330 / Fold change vs veh, ZNF330 / RFU, GPN3 / Fold change vs veh, GPN3 / RFU, C9orf123 / Fold change vs veh, C9orf123 / RFU, N4BP2L2 / Fold change vs veh, N4BP2L2 / RFU, ARFIP1 / Fold change vs veh, ARFIP1 / RFU, FAM179B / Fold change vs veh, FAM179B / RFU, BCL10 / Fold change vs veh, BCL10 / RFU, UHRF1BP1L / Fold change vs veh, UHRF1BP1L / RFU, BET1 / Fold change vs veh, BET1 / RFU, CNOT2 / Fold change vs veh, CNOT2 / RFU, ZNF268 / Fold change vs veh, ZNF268 / Fold change vs veh, ZNF507 / RFU, DGCR2 / Fold change vs veh, DGCR2 / RFU, WDSUB1 / Fold change vs veh, WDSUB1 / Fold change vs veh, HSP90B1 /// MIR3652 / RFU, ADSS / Fold change vs veh, ADSS / RFU, GK / Fold change vs veh, GK / RFU, ZNF148 / Fold change vs veh, ZNF148 / RFU, TAF9 / Fold change vs veh, TAF9 / RFU, SLC1A5 / Fold change vs veh, SLC1A5 / RFU, SLMO2 / Fold change vs veh, SLMO2 / RFU, ABCC4 / Fold change vs veh, ABCC4 / RFU, LOC101060439 /// RAP1B / Fold change vs veh, LOC101060439 /// RAP1B / RFU, RFX7 / Fold change vs veh, RFX7 / RFU, GTPBP10 / Fold change vs veh, GTPBP10 / RFU, CNEP1R1 / Fold change vs veh, CNEP1R1 / RFU, BIVM-ERCC5 /// ERCC5 / Fold change vs veh, BIVM-ERCC5 /// ERCC5 / RFU, ILF3 / Fold change vs veh, ILF3 / RFU 11762660_at / Fold change /veh 11762660_at / RFU VCAN (11757783_s_at) / Fold change /veh VCAN (11757783_s_at) / RFU DDX43 (11728927_at) / Fold change /veh DDX43 (11728927_at) / RFU KRT8 (11758188_x_at) / Fold change /veh KRT8 (11758188_x_at) / RFU NKD1 (11759106_at) / Fold change /veh NKD1 (11759106_at) / RFU SRD5A1 (11742802_a_at) / Fold change /veh SRD5A1 (11742802_a_at) / RFU TPSAB1 /// TPSB2 (11721975_s_at) / Fold change /veh TPSAB1 /// TPSB2 (11721975_s_at) / RFU GSTM3 (11746129_a_at) / Fold change /veh GSTM3 (11746129_a_at) / RFU IL23R (11737362_x_at) / Fold change /veh IL23R (11737362_x_at) / RFU TMEM51 (11727254_a_at) / Fold change /veh TMEM51 (11727254_a_at) / RFU PIWIL2 (11732686_x_at) / Fold change /veh PIWIL2 (11732686_x_at) / RFU ORM1 (11744905_x_at) / Fold change /veh ORM1 (11744905_x_at) / RFU CCDC152 (11743942_at) / Fold change /veh CCDC152 (11743942_at) / RFU ECM1 (11717891_a_at) / Fold change /veh ECM1 (11717891_a_at) / RFU IL23R (11748794_a_at) / Fold change /veh IL23R (11748794_a_at) / RFU TNFAIP8L3 (11732012_x_at) / Fold change /veh TNFAIP8L3 (11732012_x_at) / RFU MBOAT4 (11741988_at) / Fold change /veh MBOAT4 (11741988_at) / RFU 11764193_at / Fold change /veh 11764193_at / RFU TMEM53 (11763286_at) / Fold change /veh TMEM53 (11763286_at) / RFU MAGEB2 (11727129_at) / Fold change /veh MAGEB2 (11727129_at) / RFU TMEM200A (11744735_a_at) / Fold change /veh TMEM200A (11744735_a_at) / RFU CCDC152 (11751479_a_at) / Fold change /veh CCDC152 (11751479_a_at) / RFU FAM211A (11726209_a_at) / Fold change /veh FAM211A (11726209_a_at) / RFU RGS16 (11746705_a_at) / Fold change /veh RGS16 (11746705_a_at) / RFU VCAN (11755009_s_at) / Fold change /veh VCAN (11755009_s_at) / RFU RHOB (11743442_s_at) / Fold change /veh RHOB (11743442_s_at) / RFU RGS16 (11720943_a_at) / Fold change /veh RGS16 (11720943_a_at) / RFU RGS16 (11720944_at) / Fold change /veh RGS16 (11720944_at) / RFU, VPS4B / Fold change vs veh, VPS4B / RFU, CREB1 / Fold change vs veh, CREB1 / RFU, DNAJC13 / Fold change vs veh, DNAJC13 / RFU, GNAQ / Fold change vs veh, GNAQ / RFU, CDK5R1 / Fold change vs veh, CDK5R1 / RFU, ZRANB3 / Fold change vs veh, ZRANB3 / RFU, CUL4A / Fold change vs veh, CUL4A / RFU, CCNY / Fold change vs veh, CCNY / RFU, UFL1 / Fold change vs veh, UFL1 / RFU, COG3 / Fold change vs veh, COG3 / RFU, DIAPH2 / Fold change vs veh, DIAPH2 / RFU, SKA2 / Fold change vs veh, SKA2 / RFU, AFF3 / Fold change vs veh, AFF3 / RFU, LMF1 / Fold change vs veh, LMF1 / RFU, IPO11 / Fold change vs veh, IPO11 / RFU, DFFB / Fold change vs veh, DFFB / RFU, FOXP1 / Fold change vs veh, FOXP1 / RFU, CARD8 / Fold change vs veh, CARD8 / RFU, STRN3 / Fold change vs veh, STRN3 / RFU, ADK / Fold change vs veh, ADK / RFU, RASSF2 / Fold change vs veh, RASSF2 / RFU, WIPF1 / Fold change vs veh, WIPF1 / RFU, LARP1B / Fold change vs veh, LARP1B / RFU, RASA1 / Fold change vs veh, RASA1 / RFU, RB1 / Fold change vs veh, RB1 / RFU, PPFIA1 / Fold change vs veh, PPFIA1 / RFU, MAT2A / Fold change vs veh, MAT2A / RFU, CCT5 / Fold change vs veh, CCT5 / RFU, WDR92 / Fold change vs veh, WDR92 / RFU, CUX1 / Fold change vs veh, CUX1 / RFU, TTC7A / Fold change vs veh, TTC7A / RFU, TMEM135 / Fold change vs veh, TMEM135 / RFU, DEPTOR / Fold change vs veh, DEPTOR / RFU, CPM / Fold change vs veh, CPM / RFU, DNAJB6 / Fold change vs veh, DNAJB6 / RFU, CACNA2D3 / Fold change vs veh, CACNA2D3 / RFU, DTX4 / Fold change vs veh, DTX4 / RFU, TFCP2 / Fold change vs veh, TFCP2 / RFU, GMCL1 /// GMCL1P1 / Fold change vs veh, GMCL1 /// GMCL1P1 / RFU, AEBP2 / Fold change vs veh, AEBP2 / RFU, SNHG1 /// SNORD22 /// SNORD25 /// SNORD26 /// SNORD27 /// SNORD28 /// SNORD29 /// SNORD31 / Fold change vs veh, SNHG1 /// SNORD22 /// SNORD25 /// SNORD26 /// SNORD27 /// SNORD28 /// SNORD29 /// SNORD31 / Fold change (Aza/veh), C12orf56 (ProbeSet 11735607_a_at) / Fold change (ACY-1035/veh), C12orf56 (ProbeSet 11735607_a_at) / Fold change (Aza/veh), FGFR1OP (ProbeSet 11751329_s_at) / Fold change (ACY-1035/veh), FGFR1OP (ProbeSet 11751329_s_at) / Fold change (Aza/veh), VPS36 (ProbeSet 11739960_a_at) / Fold change (ACY-1035/veh), VPS36 (ProbeSet 11739960_a_at) / RFU SYPL1 (11715823_x_at) / Fold change /veh SYPL1 (11715823_x_at) / RFU IGFBP7 (11715501_s_at) / Fold change /veh IGFBP7 (11715501_s_at) / RFU REEP3 (11722064_at) / Fold change /veh REEP3 (11722064_at) / RFU IGLL1 (11728026_x_at) / Fold change /veh IGLL1 (11728026_x_at): dose or concentration left out as unconfirmed
Conditions: MV-4-11 cells, 48 hours

## Nc1ccc(-c2cccs2)cc1NC(=O)c1ccc2c(c1)cc(C1CC1)n2CCN1CCOCC1 [ACY-1035]
  RFU ANKRD19P (11752326_a_at): 5.89 RFU
